From patent US4371673A, “Water soluble forms of retinoids” (The United States of America as represented by the …, priority 1980, dated 1983)
≈ marks a conversion by molar mass, not a printed value. Where “and” joins values, the source holds several entries; their conditions need not be identical. Equal values may be shown once. Read-outs that look alike come from different tables or passages of the source.

Tests used:
vitamin A-deficient rats [1] = assay: Vitamin A-like activity measured by survival of rats fed vitamin A-deficient diet; format: in vivo, rat (male weanling albino, Holtzman); conditions: for No. of surviving animals/total: 100 μg retinal equivalent for complex
Method: Studies were undertaken to determine whether the chemical modification of retinoids to polymer-linked water soluble forms alter its biological activities. Specifically, the vitamin A-like activity of the mixed α-, β-dextrin complex of retinal-carboxymethyldextran hydrazone was tested on rats made vitamin A-deficient. The "animals" referred to herein should be construed as meaning rats.
To prepare the rats for dietary studies, male weanling albino rats of the Holtzman string were fed a vitamin A-deficient diet until a weight plateau was reached. A cyclic program was then begun in which the rats which were provided with the deficient diet were supplemented with retinoic acid at a rate of 2 μg per g. This was continued for 18 days followed by 10 days of the original deficient diet. At the termination of the fourth 18-day period in which the rats were fed the retinoic acid supplemented diet, the rats were fed for 7 days with the deficient diet and then used in two types of experiments: (a) Studies of the resorption of retinal-carboxymethyldextran hydrazone from the gastrointestinal tract and (b) studies of growth support for avitamineosis. The results of the resorption studies (a) were determined by spectrophotometrically analyzing for retinol in the serum or liver. The vitamin A-like activity of the complexes of the present invention (b) was evaluated by comparison of survival rates of a control group, those fed a cyclodextrin complex of a retinoid-polymer and those fed a free retinoid derivative.
^a The control rats received 0.2 mL of cottonseed oil
intraperitoneally while the treated animals received […] of retinyl
acetate or retinoic acid in 0.2 mL cottonseed oil or retinaldextran
complex (100 μg of retinal equivalent) in 0.2 mL water. Subsequently,
the rats received a vitamin Adeficient diet for periods indicated in the
Table and their survival was followed.
In the second series of experiments, compared in Table 2, the retinal-carboxymethyldextran complex was administered intraperitoneally and the survival of the vitamin A-deficient rats was followed during the 28 to 35 days of a vitamin A-deficient diet. […] In contrast, the control rats as well as those rats which received retinoic acid (Experiment 3) died.

[2] = Direct solubilization of retinoids by cyclodextrins and their derivatives; format: physicochemical; conditions: read-out: Solubility of retinoid in physiological buffered saline
From the text: It has been discovered that by appropriately selecting a derivatized cyclodextrin, it is unnecessary to prepare a retinoid-polymer compound preliminary to, or concurrent with, the preparation of the complex. This greatly simplifies the process of dissolving a retinoid. Thus, to prepare a solution of the cyclodextrin retinoid complex, it is merely necessary to add the components, retinoid and cyclodextrin, with stirring to an aqueous medium, such as a saline or isotonic solution, at room temperature. If one has a suitable cyclodextrin available, it is unnecessary to synthesize the cyclodextrin retinoid-polymer.
Some examples of the solubility obtained for retinoid-dextrin complexes of the present invention in physiologically acceptable solutions are presented in Table 1. It may be noted that while the solubility of a complex of one retinoid with a particular cyclodextrin may not be great, the solubility of a complex of another retinoid, using the same cyclodextrin, may be increased several orders of magnitude.
Solubility of retinoid (μg/ml)
in physiological buffered saline
(NaCl, 8 g/L; Na2 HPO4.7H2 O,
2.2g/L; KCl, 0.2 g/L and […]

S91 melanoma cells = assay: S91 melanoma cell proliferation (growth inhibition); format: cell-based; conditions: for inhibition at 0.2 µM: Mus musculus, S91, 144 h, read-out: Percentage of growth inhibition
Method: Medium was chaged on Day 3. The cells were treated for 6 days

in vitro = conditions: mouse, s9
From the text: Decreased plating efficiency and cell lysis are considered indications of cytotoxic effects.

physchem = conditions: isotonic buffered saline
From the text: The concentration of retinal in the complex was estimated by comparison of the absorbance at the peak of the absorbance spectrum with the absorbance of free retinal in ethanol at 380 nm.

vitamin A-deficient rats [3] = assay: Retinol in serum and liver of treated vitamin A-deficient rats (spectrophotometric), resorption studies; set-up: species or system rat (male weanling albino, Holtzman); conditions: rat, in vivo, ip
[4] = buffered saline with α-cyclodextrin, α-cyclodextrin, 50 mg/ml
[5] = buffered saline with β-cyclodextrin, β-cyclodextrin, 17 mg/ml
[6] = physiological buffered saline, dodecakis-2,6-O-methyl-α-cyclodextrin, 25 mg/ml
[7] = physiological buffered saline, hexadecakis-2,6-O-methyl-γ-cyclodextrin, 25 mg/ml
[8] = physiological buffered saline, solubilization agent: none
[9] = physiological buffered saline, tetradecakis-2,6-O-methyl-β-cyclodextrin, 50 mg/ml
[10] = physiological buffered saline, γ-cyclodextrin, 50 mg/ml

SMILES: CC(=O)OC/C=C(C)/C=C/C=C(C)/C=C/C1=C(C)CCCC1(C)C [Retinyl acetate]
- No. of surviving animals/total (vitamin A-deficient rats [1]; Experiment 1, 35 days on vitamin A-deficient diet, intraperitoneal): 3/3
- No. of surviving animals/total (vitamin A-deficient rats [1]; Experiment 2, 28 days on vitamin A-deficient diet, intraperitoneal): 4/4

SMILES: CC1=C(/C=C/C(C)=C/C=C/C(C)=C/C=O)C(C)(C)CCC1 [retinal]
- solubility [2, 4]: 4 µg/mL (≈ 14.1 µM)
- solubility [2, 5]: 2 µg/mL (≈ 7.03 µM)
- solubility [2, 6]: 7 µg/mL (≈ 24.6 µM)
- solubility [2, 7]: 4 µg/mL (≈ 14.1 µM)
- solubility [2, 8]: < 1 µg/mL
- solubility [2, 9]: 570 µg/mL (≈ 2000 µM)
- solubility [2, 10]: 1 µg/mL (≈ 3.52 µM)
- growth rate of cells after 48 hours (in words) (S91 melanoma cells; 48 hours, retinal 1 μM, complex 10 μM retinal moiety, FIG. 3, vs untreated controls): reduced in comparison to the untreated controls
- growth inhibition, dose dependence (in words) (S91 melanoma cells; 6 days, below 2 μM (retinal) and 40 μM (complex), FIG. 2): dose-dependent inhibition
- inhibition at 0.2 µM (S91 melanoma cells; 0.2 μM, 6 days): 28%
- inhibition at 0.2 µM (S91 melanoma cells; second retinal line, printed 0.2 μM, 6 days): 52%
- relative potency as growth inhibitor (in words) (S91 melanoma cells; all concentrations where retinal is not toxic): more potent inhibitor than the corresponding complex
- inhibition of cell proliferation, first 24 hours (in words) (S91 melanoma cells; first 24 hours, retinal 1 μM, complex 10 μM retinal moiety, FIG. 3): no apparent inhibition of cell proliferation
- CC50 (in vitro): 4 µM
- MCC (in vitro): ≥ 10 µM
- MNTC (in vitro): 2000 nM
- solubility (physchem): < 0.01 µg/mL

SMILES: CC1=C(/C=C/C(C)=C/C=C/C(C)=C/C(=O)O)C(C)(C)CCC1 [retinoic acid]
- solubility [2, 4]: 140 µg/mL (≈ 466 µM)
- solubility [2, 5]: 2000 µg/mL (≈ 6660 µM)
- solubility [2, 6]: 460 µg/mL (≈ 1530 µM)
- solubility [2, 7]: 140 µg/mL (≈ 466 µM)
- solubility [2, 8]: 20 µg/mL (≈ 66.6 µM)
- solubility [2, 9]: 460 µg/mL (≈ 1530 µM)
- solubility [2, 10]: 130 µg/mL (≈ 433 µM)
- day of death of animals (vitamin A-deficient rats [1]; Experiment 3, individual animals): 14 days and 28 days and 30 days
- No. of surviving animals/total (vitamin A-deficient rats [1]; Experiment 3, 31 days on vitamin A-deficient diet, intraperitoneal): 0/3
- survival / vitamin A-like activity (in words) (vitamin A-deficient rats [1]; intraperitoneal, 28 to 35 days of vitamin A-deficient diet): died
- Serum retinol (in words) (vitamin A-deficient rats [3]): not detectable
